{"source": "paper PMC11889964", "about": "“Surveying helix 12 dynamics within constitutively active estrogen receptors using bipartite tetracysteine display” (The Journal of Biological Chemistry, 2025)", "format_in_all_cases": "binding", "key": {"[1]": {"target": "T1, ERα-LBD-ΔC4(Y537S) (Homo sapiens, UniProt P03372, A546C/C417S/C530A/E380C/H547C/Y537S)", "T1 construct": "pMCSG7 leader with TEV site (ENLYFQ/SNA); made in house; host or cells: E. coli BL21(DE3)", "T1 sequence (P03372 with tags, fused parts or gaps E380C/C417S/C530A/Y537S/A546C/H547C)": "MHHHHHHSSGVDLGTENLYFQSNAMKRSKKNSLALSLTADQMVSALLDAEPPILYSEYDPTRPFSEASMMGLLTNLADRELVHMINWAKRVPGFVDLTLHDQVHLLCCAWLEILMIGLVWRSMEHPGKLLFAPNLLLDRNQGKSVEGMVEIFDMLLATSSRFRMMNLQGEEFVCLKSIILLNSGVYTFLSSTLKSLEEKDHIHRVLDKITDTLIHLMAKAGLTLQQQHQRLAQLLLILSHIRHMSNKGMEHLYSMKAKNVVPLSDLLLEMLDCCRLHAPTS", "experiment": "Titration FlAsH-ER assay, FlAsH apparent equilibrium dissociation constants (Kapp)", "procedure": "(§1) Titration experiments were performed on 384-well black, flat-bottom plates (catalog no.: 3575; Corning) with wells containing 25 μl total reaction volume^. ERα-LBDs (10 μM) were incubated in 25 μl of binding buffer supplemented with 1 mM TCEP overnight at room temperature. […] The solutions were then transferred to a fresh 384-well black, flat-bottom plate (catalog no.: 3575; Corning) and serially diluted with binding buffer. EDT and FlAsH-EDT2 (1 μl) in binding buffer were then immediately added at final concentrations of 10 μM and 1 μM, respectively. The reactions were then allowed to incubate in the dark for 6 h at room temperature. Fluorescence counts for each sample were then measured using a SpectraMax M5e multimode plate reader, with an excitation wavelength of 508 nm and an emission wavelength of 530 nm. Data were processed using SoftMax Pro software, version 6.4 and Kaleidagraph, version 4.5. The Kapp for each complex was defined by curve fitting using the equation below. Fobs=Fmin+(Fmax−Fmin/2L)(L+P+Kapp−((L+P+Kapp)^2−(4LP))^0.5) where Fobs is the observed fluorescence; P represents the total protein concentration; L is the total concentration of FlAsH-EDT2; Fmin is the minimum fluorescence value; Fmax represents the maximum fluorescence value; and Kapp is the apparent equilibrium dissociation constant."}, "[2]": {"target": "T2, ERα-LBD-ΔC4(D538G) (Homo sapiens, UniProt P03372, A546C/C417S/C530A/D538G/E380C/H547C)", "T2 construct": "pMCSG7 leader with TEV site (ENLYFQ/SNA); made in house; host or cells: E. coli BL21(DE3)", "T2 sequence (P03372 with tags, fused parts or gaps E380C/C417S/C530A/D538G/A546C/H547C)": "T1 sequence (P03372 with tags, fused parts or gaps E380C/C417S/C530A/Y537S/A546C/H547C) with S264Y, D265G", "experiment": "Titration FlAsH-ER assay, FlAsH apparent equilibrium dissociation constants (Kapp)", "procedure": "as §1"}, "[3]": {"target": "T3, ERα-LBD-ΔC4 (Homo sapiens, UniProt P03372, A546C/C417S/C530A/E380C/H547C)", "T3 construct": "pMCSG7 leader with TEV site (ENLYFQ/SNA); made in house; host or cells: E. coli BL21(DE3)", "T3 sequence (P03372 with tags, fused parts or gaps E380C/C417S/C530A/A546C/H547C)": "T1 sequence (P03372 with tags, fused parts or gaps E380C/C417S/C530A/Y537S/A546C/H547C) with S264Y", "experiment": "Titration FlAsH-ER assay, FlAsH apparent equilibrium dissociation constants (Kapp)", "procedure": "as §1"}, "[4]": {"target": "T1, ERα-LBD-ΔC4(Y537S)", "experiment": "Kinetic FlAsH-ER assay, FlAsH apparent rate constants (kon)", "details": "1 μM FlAsH-EDT2, 10 μM protein", "procedure": "(§2) Kinetic experiments were performed on 384-well black, flat-bottom plates (catalog no.: 3575; Corning) with wells containing 25 μl total reaction volume. ERα-LBDs (10 μM) were incubated in 25 μl of binding buffer supplemented with 1 mM TCEP overnight at room temperature. […] Aliquots of EDT and FlAsH-EDT2 (1 μl) at respective final concentrations of 10 μM and 1 μM in binding buffer were then added to the samples. The change in fluorescence of each sample was then collected over 6 h with measurements taken at 1 min intervals. Data were collected using a SpectraMax M5e multimode plate reader, with an excitation wavelength of 508 nm and an emission wavelength of 530 nm. The data were processed using Kaleidagraph, version 4.5, and apparent rate constants (kon) were determined through curve fitting using the equation below: Fobs=Fmin+(Fmax−Fmin)(1−e^(−kT)) where Fobs is the observed fluorescence; Fmin is the minimum fluorescence value; Fmax represents the maximum fluorescence value; T is time in minutes; and k is the apparent rate constant."}, "[5]": {"target": "T2, ERα-LBD-ΔC4(D538G)", "experiment": "Kinetic FlAsH-ER assay, FlAsH apparent rate constants (kon)", "details": "1 μM FlAsH-EDT2, 10 μM protein", "procedure": "as §2"}, "[6]": {"target": "T3, ERα-LBD-ΔC4", "experiment": "Kinetic FlAsH-ER assay, FlAsH apparent rate constants (kon)", "details": "1 μM FlAsH-EDT2, 10 μM protein", "procedure": "as §2"}, "[7]": {"target": "T3, ERα-LBD-ΔC4", "experiment": "Endpoint fluorescence FlAsH-ER assay", "details": "unliganded ERα-LBD-ΔC4; 1 μM FlAsH-EDT2, 6 h", "procedure": "Endpoint fluorescence experiments were performed in triplicate on 384-well black, flat-bottom plates (catalog no.: 3575; Corning) with wells containing 25 μl total reaction volume. The protein (10 μM) was incubated in FlAsH binding buffer (50 mM Tris base, 500 mM KCl, 2 mM DTT, 1 mM EDTA, 1 mM Na3VO4, 10% glycerol, pH 8.0) supplemented with 1 mM TCEP overnight at room temperature. […] Following incubation, 1 μl aliquots of EDT and FlAsH-EDT2 in binding buffer were added at final concentrations of 10 μM and 1 μM, respectively. The reaction mixtures were then allowed to incubate in the dark for 6 h at room temperature. Following incubation, the fluorescence of each sample was measured using a SpectraMax M5e multimode plate reader (Molecular Devices), with an excitation wavelength of 508 nm and an emission wavelength of 530 nm. Data were collected using SoftMax Pro software, version 6.4 (Molecular Devices) and processed using Kaleidagraph, version 4.5 (Synergy)."}}, "note": "Positions count from the first letter of the chain named."}
{"compound": "O=C(O)c1ccccc1-c1c2ccc(=O)c([As]3SCCS3)c-2oc2c([As]3SCCS3)c(O)ccc12", "note": "[FlAsH]", "values": [{"measurement": "Kd", "setting": "[1]; liganded receptor (+E2)", "result": "540 ± 330", "unit": "nM"}, {"measurement": "Kd", "setting": "[1]; unliganded receptor (−E2)", "result": "900 ± 650", "unit": "nM"}, {"measurement": "Kd", "setting": "[2]; liganded receptor (+E2)", "result": "160 ± 60", "unit": "nM"}, {"measurement": "Kd", "setting": "[2]; unliganded receptor (−E2)", "result": "570 ± 370", "unit": "nM"}, {"measurement": "Kd", "setting": "[3]; liganded receptor (+E2)", "result": "1220 ± 700", "unit": "nM"}, {"measurement": "Kd", "setting": "[3]; unliganded receptor (−E2)", "result": "940 ± 560", "unit": "nM"}, {"measurement": "kon", "setting": "[4]; liganded receptor (+10 μM E2)", "result": 900, "unit": "M⁻¹ s⁻¹"}, {"measurement": "kon", "setting": "[4]; unliganded receptor (−E2)", "result": 491, "unit": "M⁻¹ s⁻¹"}, {"measurement": "kon", "setting": "[5]; liganded receptor (+10 μM E2)", "result": 1170, "unit": "M⁻¹ s⁻¹"}, {"measurement": "kon", "setting": "[5]; unliganded receptor (−E2)", "result": 838, "unit": "M⁻¹ s⁻¹"}, {"measurement": "kon", "setting": "[6]; liganded receptor (+10 μM E2)", "result": 310, "unit": "M⁻¹ s⁻¹"}, {"measurement": "kon", "setting": "[6]; unliganded receptor (−E2)", "result": 447, "unit": "M⁻¹ s⁻¹"}, {"measurement": "increase in endpoint fluorescence compared with ERα-LBD-ΔC0", "setting": "[7]", "result": 10, "unit": "fold"}]}
